Assay [1] concerns NCI-H358 cells (KRAS G12C). In words: Cell viability assay, G12C. The assay is classed as cell-based, human. The settings on record: Homo sapiens; NCI-H358, 72 hrs, Cell Counting Kit-8. How it is done: (§1) The purpose of this cellular assay was to determine the effects of test compounds on the proliferation of human cancer cell lines NCI-H358 (ATCC-CRL5807) cells, AGS (ATCC-CRL-1739) cells, SW620 (ATCC-CCL-227) over a 3-day treatment period by quantifying the amount of NADPH present at endpoint using Cell Counting Kit-8.
(§2) Cells were seeded at 5,000 cells/well (NCI-H358), 2,000 cells/well (AGS) 2,000 cells/well (SW620) in 96-well assay plates (Corning-3699) and incubated overnight. On the day of the assay, diluted compounds were then added in a final concentration of 0.5% DMSO. After 72 hrs incubation, a tenth of the volume of cell counting kit 8 (Dnjindo-CK04) was added into each well. Read the signal (OD450 minus OD650) using EnVision after 2 hrs incubation. IC50 was determined by fitting a 4-parameter sigmoidal concentration response model.
(In general: Formazan colour is commonly taken as a measure of viable cells.)

Assay [2] deals with phosphorylation of ERK, KRAS G12C in NCI-H358 cells. In words: pERK inhibition assay, G12C. The format is cell-based, human. The settings on record: Homo sapiens; NCI-H358, 4 hours of incubation. How it is done: (§3) This assay is to measure the ability of test compounds in inhibiting the phosphorylation of ERK, the downstream signaling of KRAS G12C in NCI-H358 cells, KRAS G12D in AGS cells, and KRAS G12V in SW620. NCI-H358 (ATCC-CRL5807) cells, AGS (ATCC-CRL-1739) cells, SW620 (ATCC-CCL-227) cells were all grown and maintained using RPMI-1640 medium (Thermo Fisher Scientific) with 10% fetal bovine serum and 1% penicillin/streptomycin. On the day prior to compound addition, cells were plated in tissue culture-treated 96 well plates (Corning-3699) at a density of 30,000 cell/well, 20,000 cell/well, 30,000 cell/well for NCI-H358, AGS and SW620 respectively, and allowed for attachment overnight. Diluted compounds were then added in a final concentration of 0.5% DMSO. After 4 hours of incubation, the medium was removed, 100 μL of 4% formaldehyde was added, and the assay plates were incubated at room temperature for 20 minutes. The plates were then washed once with phosphate buffered saline (PBS), and permeabilized with 100 μL of chilled methanol for 10 minutes. Non-specific antibody binding to the plates was blocked using 50 μL 1×BSA blocking buffer (Thermo-37520, 10-fold dilution by Phosphate-Buffered Saline Tween (PBST) for at least 1 hour at room temperature.
(§4) The amount of phosphor-ERK was determined using an antibody specific for phosphorylated form of ERK. Primary antibody (pERK, CST-4370, Cell Signaling Technology) was diluted 1:300 in blocking buffer, with 50 μL aliquoted to each well, and incubated overnight at 4° C. Cells was washed five times for 5 minutes with PBST. Secondary antibody (HRP-linked anti-rabbit IgG, CST-7074, Cell Signaling Technology) was diluted 1:1000 in blocking buffer, and 50 μL was added to each well and incubated 1-2 hrs at room temperature. Cells was washed 5 times for 5 minutes with PBST, 100 μL TMB ELISA substrate (abcam-ab171523) were added and gently shake for 20 minutes. 50 μL stop solution (abcam-ab171529) were added, and then read the signal (OD450) by EnVision.
(§5) IC50 was determined by fitting a 4-parameter sigmoidal concentration response model.

Assay [3] has as its system phosphorylation of ERK, KRAS G12V in SW620. Put plainly: pERK inhibition assay, G12V. The settings on record: Homo sapiens, SW-620; SW620, 4 hours of incubation. The assay is classed as cell-based, human. How it is done:
as §3, §4, §5

Assay [4] concerns phosphorylation of ERK, KRAS G12D in AGS cells. In words: pERK inhibition assay, G12D. The format is cell-based, human. The note with it: Homo sapiens, 4 hours of incubation. How it is done: as §3, §4, §5
The next assay has as its system AGS cells (KRAS G12D). In words: Cell viability assay, G12D. The note with it: Homo sapiens, 72 hrs, Cell Counting Kit-8. The format is cell-based, human. How it is done:
as §1, §2

Assay [5] addresses T1, KRAS G12C-BRAF complex (Homo sapiens, UniProt P01116+P62937, G12C).
T1 construct: expressed in transfected cells
Put plainly: KRAS G12C-BRAF NanoBit assay in HEK293 cells. The settings on record: HEK293 stable cell pool, 3 hours of incubation. The format is cell-based. How it is done: This assay is to measure the ability of tested compounds in disruption of the KRAS G12C-BRAF complex at the cellular level, we established the NanoBit cellular assay in mammalian HEK293 (ATCC) cells. HEK293 cells were grown and maintained using DMEM medium (Thermo Fisher Scientific) with 10% fetal bovine serum and 1% penicillin/streptomycin. Both KRAS G12C and BRAF RBD were cloned into the NanoBit vectors ([…] vectors system, Promega) with the orientations SmBit-KRAS G12C and BRAF RBD-LgBit, respectively, and co-transfected into HEK293 cells. Cells were then selected with 100 μg/mL Hygromycin B (10687010, Thermo Fisher) and Blasticidin (5 μg/mL) for 4 weeks to get the stable cell pool. On the day of the assay, 75 nL of compound solution was presented in a 384-well assay plate as a 16-point 3-fold dilution starting from a final concentration of 30 μM in DMSO. Then cells were seeded at 10,000 cells/25 μL/well in a 384-well plate. After 3 hours of incubation, 6 μL of volume of Nano-Glo® Live Cell Substrate (Promega) was added into each well. Monitor luminescence using ultra384 model in Envision at 20 minutes. Compounds that facilitate disruption of the KRAS G12C-BRAF RBD complex were identified as those eliciting a decrease of luminescence relative to DMSO control wells.

The target in assay [6] is KRAS G12D binding to BRAF (Homo sapiens, UniProt P01116+P62937, G12D). In words: KRAS-BRAF with CYPA (500 nM) interaction assay (TR-FRET), G12D. The assay is classed as biochemical. The settings on record: 3 hours. How it is done:
(§6) Kras-BRAF with CYPA (500 nM) Interaction Assay In this example, TR-FRET was also used to measure the compound or compound-CYPA dependent disruption of the KRAS G12C-BRAF complex. This protocol was also used to measure disruption of KRAS G12D or KRAS G12V binding to BRAF by a compound of the invention, respectively. […] TR-FRET signal was read on a […] microplate reader (Ex320 nm, Em 665/615 nm). Compounds that facilitate disruption of the KRAS-BRAF complex were identified as those eliciting a decrease in the TR-FRET ratio relative to DMSO control wells.
On the technique in general: Time-resolved FRET reads energy transfer from a long-lived donor to a nearby acceptor.

Assay [7] deals with KRAS G12V binding to BRAF (Homo sapiens, UniProt P01116+P62937, G12V). Put plainly: KRAS-BRAF with CYPA (500 nM) interaction assay (TR-FRET), G12V. The format is biochemical. The note with it: 3 hours. How it is done:
as §6

In another assay the test system is SW620 cells (KRAS G12V). In words: Cell viability assay, G12V. The assay is classed as cell-based, human. The settings on record: Homo sapiens, SW-620; SW620, 72 hrs, Cell Counting Kit-8. How it is done: as §1, §2
In assay [8] the target is T1, KRAS G12C-BRAF complex. In words: KRAS-BRAF with CYPA (500 nM) interaction assay (TR-FRET), G12C. The assay is classed as biochemical. The settings on record: 3 hours. How it is done: as §6

Molecules are shown by their SMILES. A value given as a limit tells only on which side of the number the result lay.

Chain of KRAS G12D binding to BRAF (P01116 1-188 isoform P01116-2 G12D): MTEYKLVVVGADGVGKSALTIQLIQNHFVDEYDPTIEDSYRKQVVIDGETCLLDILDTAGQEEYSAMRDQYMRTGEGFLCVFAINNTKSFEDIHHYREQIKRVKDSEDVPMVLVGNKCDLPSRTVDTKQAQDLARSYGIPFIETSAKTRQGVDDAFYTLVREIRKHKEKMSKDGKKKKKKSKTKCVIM
Chain of KRAS G12D binding to BRAF (P62937 whole entry): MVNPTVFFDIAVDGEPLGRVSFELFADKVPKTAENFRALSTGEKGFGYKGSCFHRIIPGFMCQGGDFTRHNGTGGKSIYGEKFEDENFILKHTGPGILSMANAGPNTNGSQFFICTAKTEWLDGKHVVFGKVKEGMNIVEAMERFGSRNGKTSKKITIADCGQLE
T1 sequence (P01116 1-188 isoform P01116-2 G12C): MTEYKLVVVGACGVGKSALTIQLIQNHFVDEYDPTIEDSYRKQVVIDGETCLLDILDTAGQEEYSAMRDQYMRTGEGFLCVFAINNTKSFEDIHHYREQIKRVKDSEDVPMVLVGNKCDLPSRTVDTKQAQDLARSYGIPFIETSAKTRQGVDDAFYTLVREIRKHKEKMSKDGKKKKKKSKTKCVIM
T1 sequence (P62937 whole entry): as the sequence (P62937 whole entry) above
Chain of KRAS G12V binding to BRAF (P01116 1-188 isoform P01116-2 G12V): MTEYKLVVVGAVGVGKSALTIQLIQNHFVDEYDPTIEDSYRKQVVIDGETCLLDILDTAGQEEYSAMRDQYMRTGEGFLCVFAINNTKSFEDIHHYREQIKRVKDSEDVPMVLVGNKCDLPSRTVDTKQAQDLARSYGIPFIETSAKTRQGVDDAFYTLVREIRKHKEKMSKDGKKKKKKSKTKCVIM
Chain of KRAS G12V binding to BRAF (P62937 whole entry): as the sequence (P62937 whole entry) above

`CO[C@@H](C)c1ncc(N2CCN(C)CC2)cc1-c1c2c3cc(c(F)cc3n1CC(F)(F)F)-c1csc(n1)C[C@H](NC(=O)[C@H](C(C)C)N(C)C(=O)[C@H]1C[C@H](C#CC(F)(F)F)C1)C(=O)N1CCC[C@H](N1)C(=O)OCC(C)(C)C2` (atropisomer, axis not shown; (M)) [Example 1, trans-N-[(1S)-1-[[(7S,13S)-24-fluoro-(20M)-20-[2-[(1S)-1-methoxyethyl]-5-(4-methylpiperazin-1-yl)-3-pyridyl]-17,17-dimethyl-8,14-dioxo-21-(2,2,2-trifluoroethyl)-15-oxa-4-thia-9,21,27,28-tetrazapentacyclo[17.5.2.1^2,5.1^9,13.0^22,26]octacosa-1(25),2,5(28),19,22(26),23-hexaen-7-yl]carbamoyl]-2-methyl-propyl]-N-methyl-3-(3,3,3-trifluoroprop-1-ynyl)cyclobutanecarboxamide]: the IC50 in assay [1] was 0.027 µM; in assay [2], 0.035 µM; in assay [3], 0.063 µM; in assay [4], 1.1 µM; in the assay on AGS cells (KRAS G12D) it was over 10 µM; against KRAS G12C-BRAF complex [5], 0.081 µM. Moreover, the IC50 in [6] was over 10 µM; in [7], over 10 µM; in the assay on SW620 cells (KRAS G12V) it was 0.04 µM; against KRAS G12C-BRAF complex [8] it was 3.35 µM.

With `CO[C@@H](C)c1ncc(N2CCN(C)CC2)cc1-c1c2c3cc(c(F)cc3n1CC(F)(F)F)-c1csc(n1)C[C@H](NC(=O)[C@H](C(C)C)N(C)C(=O)c1ccc(C#CC(F)(F)F)cc1)C(=O)N1CCC[C@H](N1)C(=O)OCC(C)(C)C2` (atropisomer, axis not shown; (M)) [Example 4, N-[(1S)-1-[[(7S,13S)-24-fluoro-(20M)-20-[2-[(1S)-1-methoxyethyl]-5-(4-methylpiperazin-1-yl)-3-pyridyl]-17,17-dimethyl-8,14-dioxo-21-(2,2,2-trifluoroethyl)-15-oxa-4-thia-9,21,27,28-tetrazapentacyclo[17.5.2.1^2,5.1^9,13.0^22,26]octacosa-1(25),2,5(28),19,22(26),23-hexaen-7-yl]carbamoyl]-2-methyl-propyl]-N-methyl-4-(3,3,3-trifluoroprop-1-ynyl)benzamide], the half-inhibitory concentration (IC50) in assay [1] amounted to 0.123 µM; in [2], 0.063 µM; in [3] it was 0.006 µM; in assay [4], 0.509 µM; with AGS cells (KRAS G12D) it was 0.781 µM; on KRAS G12C-BRAF complex [5], 0.219 µM. Besides, the IC50 was 0.142 µM in [6], over 10 µM in assay [7], 0.041 µM in the assay on SW620 cells (KRAS G12V) and 0.43 µM against KRAS G12C-BRAF complex [8].

In the case of `CO[C@@H](C)c1ncc(N2CCN(C)CC2)cc1-c1c2c3cc(c(F)cc3n1CC(F)(F)F)-c1csc(n1)C[C@H](NC(=O)[C@H](C(C)C)N(C)C(=O)[C@H]1CC[C@H](C#CC(F)(F)F)CC1)C(=O)N1CCC[C@H](N1)C(=O)OCC(C)(C)C2` (atropisomer, axis not shown; (M)) [Example 9, trans-N-[(1S)-1-[[(7S,13S)-24-fluoro-(20M)-20-[2-[(1S)-1-methoxyethyl]-5-(4-methylpiperazin-1-yl)-3-pyridyl]-17,17-dimethyl-8,14-dioxo-21-(2,2,2-trifluoroethyl)-15-oxa-4-thia-9,21,27,28-tetrazapentacyclo[17.5.2.1^2,5.1^9,13.0^22,26]octacosa-1(25),2,5(28),19,22(26),23-hexaen-7-yl]carbamoyl]-2-methyl-propyl]-N-methyl-4-(3,3,3-trifluoroprop-1-ynyl)cyclohexanecarboxamide], the IC50 in assay [1] was 0.436 µM; in assay [2], 0.292 µM; in [3], 0.498 µM; in [4], 1.77 µM; in the assay on AGS cells (KRAS G12D), over 5 µM; on KRAS G12C-BRAF complex [5] it was 0.418 µM. Further, the IC50 was 3.01 µM in assay [6], 1.98 µM in [7], over 5 µM with SW620 cells (KRAS G12V) and 0.819 µM at KRAS G12C-BRAF complex [8].

In the case of `CO[C@@H](C)c1ncc(N2CCN(C)CC2)cc1-c1c2c3cc(c(F)cc3n1CC(F)(F)F)-c1csc(n1)C[C@H](NC(=O)[C@H](C(C)C)N(C)C(=O)[C@H]1CC[C@@H](C#CC(F)(F)F)CC1)C(=O)N1CCC[C@H](N1)C(=O)OCC(C)(C)C2` (atropisomer, axis not shown; (M)) [Example 10, cis-N-[(1S)-1-[[(7S,13S)-24-fluoro-(20M)-20-[2-[(1S)-1-methoxyethyl]-5-(4-methylpiperazin-1-yl)-3-pyridyl]-17,17-dimethyl-8,14-dioxo-21-(2,2,2-trifluoroethyl)-15-oxa-4-thia-9,21,27,28-tetrazapentacyclo[17.5.2.1^2,5.1^9,13.0^22,26]octacosa-1(25),2,5(28),19,22(26),23-hexaen-7-yl]carbamoyl]-2-methyl-propyl]-N-methyl-4-(3,3,3-trifluoroprop-1-ynyl)cyclohexanecarboxamide], the IC50 worked out at 0.078 µM in [1]; 0.048 µM in [2]; 0.065 µM in assay [3]; 0.152 µM in [4]; 0.876 µM in the assay with AGS cells (KRAS G12D); 0.12 µM against KRAS G12C-BRAF complex [5]. In addition, the half-maximal inhibitory concentration (IC50) is 1.91 µM in [6], 1.48 µM in assay [7], over 5 µM in the assay with SW620 cells (KRAS G12V) and over 10 µM against KRAS G12C-BRAF complex [8].

In general, IC50 refers to the concentration that gives 50% inhibition. Read a low IC50 as greater potency.

The record behind these values is US20250257075A1, “MACROCYCLIC INHIBITORS OF KRAS FOR THE TREATMENT OF CANCER” (Hoffmann-La Roche Inc., priority 2022, published 2025).
